For four compounds, remaining activity results are on record in PMC5564600 (Oncotarget, 2017).

SMILES strings stand for the structures.

Holding throughout (experiment): biochemical
What all share (assay type): binding

Assay [1] concerns the target T1, panel of 442 kinases (Homo sapiens, UniProt O95835).
T1 construct: purchased Ambit Biosciences (scanMAXX KINOMEscan)
T1 sequence (O95835 1-1130): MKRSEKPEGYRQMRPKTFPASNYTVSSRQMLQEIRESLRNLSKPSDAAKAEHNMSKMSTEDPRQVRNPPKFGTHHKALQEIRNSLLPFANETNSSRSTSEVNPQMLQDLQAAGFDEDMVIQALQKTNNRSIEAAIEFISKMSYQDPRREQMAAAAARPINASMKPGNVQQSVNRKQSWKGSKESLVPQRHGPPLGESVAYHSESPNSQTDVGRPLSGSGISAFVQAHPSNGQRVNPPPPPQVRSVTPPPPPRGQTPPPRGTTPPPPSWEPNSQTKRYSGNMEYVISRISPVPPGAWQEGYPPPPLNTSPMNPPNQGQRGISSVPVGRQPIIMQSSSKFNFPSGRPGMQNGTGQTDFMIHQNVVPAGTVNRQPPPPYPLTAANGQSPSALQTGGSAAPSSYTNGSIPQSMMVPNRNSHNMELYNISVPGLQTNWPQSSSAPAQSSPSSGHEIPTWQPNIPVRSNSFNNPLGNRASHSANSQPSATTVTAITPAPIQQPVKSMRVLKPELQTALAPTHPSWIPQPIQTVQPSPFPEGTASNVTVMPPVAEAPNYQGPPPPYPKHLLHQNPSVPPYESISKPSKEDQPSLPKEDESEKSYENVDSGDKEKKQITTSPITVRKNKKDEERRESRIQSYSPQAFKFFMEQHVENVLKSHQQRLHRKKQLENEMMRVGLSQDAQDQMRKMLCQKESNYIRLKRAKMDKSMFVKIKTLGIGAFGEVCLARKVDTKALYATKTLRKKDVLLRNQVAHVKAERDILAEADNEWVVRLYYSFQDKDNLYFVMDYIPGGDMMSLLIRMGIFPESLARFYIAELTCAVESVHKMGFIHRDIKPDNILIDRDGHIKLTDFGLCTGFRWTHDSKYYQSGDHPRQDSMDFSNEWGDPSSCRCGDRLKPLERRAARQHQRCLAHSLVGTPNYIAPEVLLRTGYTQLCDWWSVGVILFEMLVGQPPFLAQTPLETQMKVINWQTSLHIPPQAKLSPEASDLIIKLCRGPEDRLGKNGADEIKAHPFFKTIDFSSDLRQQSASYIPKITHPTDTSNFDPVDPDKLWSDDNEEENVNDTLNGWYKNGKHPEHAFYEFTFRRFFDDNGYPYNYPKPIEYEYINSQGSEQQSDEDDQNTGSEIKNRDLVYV
The conditions noted are these: kinase LATS1; for remaining activity at 1 µM: read-out: % of control at 1 µM.

Assay [2] has as its target T2, panel of 442 kinases (Homo sapiens, UniProt Q9NYY3).
T2 construct: purchased Ambit Biosciences (scanMAXX KINOMEscan)
The conditions noted are these: kinase PLK2; for remaining activity at 1 µM: read-out: PLK2 (% of control at 1 µM).

Assay [3] deals with T3, panel of 442 kinases (Homo sapiens, UniProt Q9UHD2).
T3 construct: purchased Ambit Biosciences (scanMAXX KINOMEscan)
T3 sequence (Q9UHD2 1-729): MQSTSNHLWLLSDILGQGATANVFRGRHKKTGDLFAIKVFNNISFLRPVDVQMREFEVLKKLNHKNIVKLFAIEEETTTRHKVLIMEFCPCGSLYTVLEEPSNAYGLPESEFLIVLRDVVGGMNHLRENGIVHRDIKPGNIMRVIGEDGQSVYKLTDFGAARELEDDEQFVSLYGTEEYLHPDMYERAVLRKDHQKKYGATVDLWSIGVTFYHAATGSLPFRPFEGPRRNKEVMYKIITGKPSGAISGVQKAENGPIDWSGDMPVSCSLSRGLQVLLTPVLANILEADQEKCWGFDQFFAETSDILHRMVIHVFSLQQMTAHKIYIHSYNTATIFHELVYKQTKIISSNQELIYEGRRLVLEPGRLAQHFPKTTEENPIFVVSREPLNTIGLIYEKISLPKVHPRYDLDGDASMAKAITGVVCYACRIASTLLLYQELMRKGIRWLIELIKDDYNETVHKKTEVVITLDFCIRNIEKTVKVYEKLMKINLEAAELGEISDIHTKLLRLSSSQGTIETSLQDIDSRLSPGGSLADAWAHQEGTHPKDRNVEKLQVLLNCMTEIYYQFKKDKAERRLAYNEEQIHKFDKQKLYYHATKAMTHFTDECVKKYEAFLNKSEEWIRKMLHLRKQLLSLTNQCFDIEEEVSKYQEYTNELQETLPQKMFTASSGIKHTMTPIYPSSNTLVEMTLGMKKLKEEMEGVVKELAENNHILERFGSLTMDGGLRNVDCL
The conditions noted are these: kinase TBK1; for remaining activity at 1 µM: read-out: TBK1 (% of control at 1 µM).

Assay [4] has as its target T4, panel of 442 kinases (Homo sapiens, UniProt P16591).
T4 construct: purchased Ambit Biosciences (scanMAXX KINOMEscan)
To be noted: FER; for remaining activity at 1 µM: read-out: % of control at 1 µM.

For assay [5], the target named is T5, panel of 442 kinases (Homo sapiens, UniProt P00533, G719C).
T5 construct: purchased Ambit Biosciences (scanMAXX KINOMEscan)
The conditions noted are these: EGFR(G719C); for remaining activity at 1 µM: read-out: % of control at 1 µM.

Assay [6] has as its target T6, panel of 442 kinases (Homo sapiens, UniProt Q15835).
T6 construct: purchased Ambit Biosciences (scanMAXX KINOMEscan)
T6 sequence (Q15835 1-563): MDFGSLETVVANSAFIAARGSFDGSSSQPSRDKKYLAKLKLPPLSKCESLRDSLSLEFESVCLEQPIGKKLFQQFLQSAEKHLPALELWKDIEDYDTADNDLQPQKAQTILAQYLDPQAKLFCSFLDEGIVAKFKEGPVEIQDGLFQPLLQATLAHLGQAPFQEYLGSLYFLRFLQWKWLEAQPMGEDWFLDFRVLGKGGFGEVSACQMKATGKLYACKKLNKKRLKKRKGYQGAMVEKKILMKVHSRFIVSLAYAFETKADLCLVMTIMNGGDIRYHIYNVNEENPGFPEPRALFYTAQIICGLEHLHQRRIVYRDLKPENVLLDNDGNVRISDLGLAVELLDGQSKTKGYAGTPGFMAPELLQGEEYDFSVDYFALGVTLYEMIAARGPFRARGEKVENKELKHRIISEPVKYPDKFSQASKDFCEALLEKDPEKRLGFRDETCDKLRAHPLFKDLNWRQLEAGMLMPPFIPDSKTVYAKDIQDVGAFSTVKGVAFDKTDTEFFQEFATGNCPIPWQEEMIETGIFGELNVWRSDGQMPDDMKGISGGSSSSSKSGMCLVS
To be noted: kinase GRK1; for remaining activity at 1 µM: read-out: % of control at 1 µM.

[7] abbreviates: 10 µM, read-out: % of control at 10 µM.

T2 sequence (Q9NYY3 whole entry): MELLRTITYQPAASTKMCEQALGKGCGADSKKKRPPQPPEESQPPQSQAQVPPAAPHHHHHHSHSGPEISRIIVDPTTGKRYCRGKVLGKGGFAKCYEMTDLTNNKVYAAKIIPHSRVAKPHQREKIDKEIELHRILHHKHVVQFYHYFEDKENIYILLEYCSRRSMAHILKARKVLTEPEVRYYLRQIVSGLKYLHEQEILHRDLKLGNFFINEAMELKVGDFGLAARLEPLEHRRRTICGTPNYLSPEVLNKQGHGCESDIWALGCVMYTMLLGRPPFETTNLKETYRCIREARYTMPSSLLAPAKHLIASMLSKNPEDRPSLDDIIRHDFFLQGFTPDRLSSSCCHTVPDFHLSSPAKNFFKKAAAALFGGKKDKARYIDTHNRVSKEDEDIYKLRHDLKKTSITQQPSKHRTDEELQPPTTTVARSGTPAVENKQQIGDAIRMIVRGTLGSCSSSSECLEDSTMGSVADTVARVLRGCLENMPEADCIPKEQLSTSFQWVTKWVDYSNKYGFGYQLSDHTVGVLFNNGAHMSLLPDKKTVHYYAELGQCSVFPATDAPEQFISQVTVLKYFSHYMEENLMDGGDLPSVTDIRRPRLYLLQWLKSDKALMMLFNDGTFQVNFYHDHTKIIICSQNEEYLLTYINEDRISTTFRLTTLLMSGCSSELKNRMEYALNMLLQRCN
T5 sequence (P00533 25-1210 G719C): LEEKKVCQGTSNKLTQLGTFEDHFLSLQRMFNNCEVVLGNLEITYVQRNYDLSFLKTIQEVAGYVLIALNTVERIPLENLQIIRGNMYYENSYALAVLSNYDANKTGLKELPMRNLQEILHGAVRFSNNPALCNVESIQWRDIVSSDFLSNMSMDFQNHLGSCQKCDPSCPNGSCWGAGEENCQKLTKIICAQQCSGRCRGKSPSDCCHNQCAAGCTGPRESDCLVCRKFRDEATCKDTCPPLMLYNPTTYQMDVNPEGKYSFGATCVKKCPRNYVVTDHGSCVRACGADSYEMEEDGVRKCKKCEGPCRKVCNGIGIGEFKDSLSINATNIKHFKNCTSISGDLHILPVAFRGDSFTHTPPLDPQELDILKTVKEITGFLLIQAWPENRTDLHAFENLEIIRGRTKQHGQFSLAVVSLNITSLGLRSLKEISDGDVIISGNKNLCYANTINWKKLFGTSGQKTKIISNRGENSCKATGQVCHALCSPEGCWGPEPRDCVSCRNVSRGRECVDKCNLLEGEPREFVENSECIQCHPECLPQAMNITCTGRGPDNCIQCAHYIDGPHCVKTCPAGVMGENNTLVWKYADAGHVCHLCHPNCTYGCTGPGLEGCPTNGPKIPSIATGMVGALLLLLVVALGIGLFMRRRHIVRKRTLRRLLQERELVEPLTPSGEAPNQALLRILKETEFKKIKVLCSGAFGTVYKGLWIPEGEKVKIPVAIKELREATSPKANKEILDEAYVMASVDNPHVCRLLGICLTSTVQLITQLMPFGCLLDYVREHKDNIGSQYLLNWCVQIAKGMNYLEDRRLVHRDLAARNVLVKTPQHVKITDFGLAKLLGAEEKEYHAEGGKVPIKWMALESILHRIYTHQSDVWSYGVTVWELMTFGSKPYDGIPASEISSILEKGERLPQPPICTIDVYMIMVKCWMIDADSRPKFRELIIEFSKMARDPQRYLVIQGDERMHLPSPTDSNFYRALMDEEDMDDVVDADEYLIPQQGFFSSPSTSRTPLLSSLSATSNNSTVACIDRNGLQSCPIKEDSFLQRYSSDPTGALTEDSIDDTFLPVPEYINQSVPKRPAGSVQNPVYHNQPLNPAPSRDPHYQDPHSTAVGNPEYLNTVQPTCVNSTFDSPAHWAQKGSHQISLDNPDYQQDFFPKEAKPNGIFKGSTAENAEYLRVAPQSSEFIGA
T4 sequence (P16591 whole entry): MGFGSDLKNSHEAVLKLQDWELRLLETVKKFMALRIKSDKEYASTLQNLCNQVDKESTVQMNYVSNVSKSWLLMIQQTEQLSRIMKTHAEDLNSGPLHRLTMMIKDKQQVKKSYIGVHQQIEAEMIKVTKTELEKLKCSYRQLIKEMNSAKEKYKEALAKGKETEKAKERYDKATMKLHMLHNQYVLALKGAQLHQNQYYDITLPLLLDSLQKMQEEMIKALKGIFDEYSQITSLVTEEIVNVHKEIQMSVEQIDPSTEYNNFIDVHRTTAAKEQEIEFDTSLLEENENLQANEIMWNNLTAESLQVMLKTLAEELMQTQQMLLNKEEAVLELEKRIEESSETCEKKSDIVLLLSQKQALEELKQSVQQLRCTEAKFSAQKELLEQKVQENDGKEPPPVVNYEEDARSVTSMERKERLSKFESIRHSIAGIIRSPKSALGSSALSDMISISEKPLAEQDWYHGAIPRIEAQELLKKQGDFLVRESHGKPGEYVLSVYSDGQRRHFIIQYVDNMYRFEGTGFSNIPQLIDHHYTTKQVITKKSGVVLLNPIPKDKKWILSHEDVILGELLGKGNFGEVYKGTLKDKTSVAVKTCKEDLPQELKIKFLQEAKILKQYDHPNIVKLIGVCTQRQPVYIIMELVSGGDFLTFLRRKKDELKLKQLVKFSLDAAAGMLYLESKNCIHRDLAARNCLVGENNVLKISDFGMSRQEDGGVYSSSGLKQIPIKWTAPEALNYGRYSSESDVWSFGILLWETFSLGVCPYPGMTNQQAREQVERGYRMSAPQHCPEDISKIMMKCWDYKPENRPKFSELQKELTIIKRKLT

As for `Nc1cc(C(F)(F)F)c(-c2cc(N3CCOCC3)nc(N3CCOCC3)n2)cn1` [Buparlisib], the remaining activity at 1 µM on panel of 442 kinases [1] amounted to 71%; at panel of 442 kinases [2] it was 89%; on panel of 442 kinases [3], 99%; on panel of 442 kinases [4] it was 100%; at panel of 442 kinases [5], 84%; on panel of 442 kinases [6] it was 100%. Also, the remaining activity at 10 µM was determined as 100% on panel of 442 kinases [1] (setting [7]); 100% on panel of 442 kinases [2] (10 µM, read-out: PLK2 (% of control at 10 µM)); 100% at panel of 442 kinases [3] (10 µM, read-out: TBK1 (% of control at 10 µM)); 100% on panel of 442 kinases [4] (setting [7]); 83% on panel of 442 kinases [5] (setting [7]); 100% on panel of 442 kinases [6] (setting [7]).
Take `Cn1c(=O)n(-c2ccc(C(C)(C)C#N)cc2)c2c3cc(-c4cnc5ccccc5c4)ccc3ncc21` [Dactolisib, 2-methyl-2-[4-(3-methyl-2-oxo-8-quinolin-3-yl-2,3-dihydroimidazo[4,5-c]quinolin-1-yl)-phenyl] propionitrile]: the remaining activity at 1 µM on panel of 442 kinases [1] came to 100%; on panel of 442 kinases [2], 100%; on panel of 442 kinases [3], 93%; on panel of 442 kinases [4] it was 60%; at panel of 442 kinases [6], 100%.
For the compound `COc1ncc(-c2ccc3nccc(-c4ccnnc4)c3c2)cc1NS(=O)(=O)c1ccc(F)cc1F` [Omipalisib], the remaining activity at 1 µM is 100% on panel of 442 kinases [1]; 100% on panel of 442 kinases [2]; 100% on panel of 442 kinases [3]; 100% at panel of 442 kinases [4]; 100% on panel of 442 kinases [5]; 81% at panel of 442 kinases [6].
In the case of `FC(F)c1nc2ccccc2n1-c1nc(N2CCOCC2)nc(N2CCOCC2)n1` [ZSTK474, 2-(difluoromethyl)-1-[4,6-di(4-morpholinyl)-1,3,5-triazin-2-yl]-1H-benzimidazole], the remaining activity at 1 µM at panel of 442 kinases [1] amounted to 90%; at panel of 442 kinases [2], 100%; at panel of 442 kinases [3], 100%; at panel of 442 kinases [4] it was 55%; on panel of 442 kinases [5] it was 97%; at panel of 442 kinases [6] it was 100%.
